Laboratory results reported in paper PMC8461356 (Heliyon, 2021).
Like-named read-outs stand apart in the source and are kept apart here.

Legend:
[1] = format: cell-based, Human; conditions: human, HEK-293 cells, relative cell viability, 4 °C/No UV = 100 %
HEK-293 cells = format: cell-based, Human; conditions: for toxicity enhanced: co-treatment with UV 365 nm and 40 °C; for more cell death after exposing herbicide to 40 °C for 2 h: herbicide at LD50, no UV, compared with 4 °C and RT groups, 24-h cell exposure; for change in cell viability: 2 h of 40 °C/UV 254 nm; for increased toxicity: vs no UV
[2] = outdoor aquatic mesocosms, at 25 ng mL^−1; cited from earlier work
[3] = cited from earlier work
isolated rat hepatocytes = conditions: rats and dogs, 100–200 μmole L-1 for 2–4 h; cited from earlier work
[4] = in vivo studies; cited from earlier work

Compound	viability at 24 h ([1]; 40 °C/No UV 2 h) [%]	viability at 24 h ([1]; 40 °C/UV 254 nm 2 h) [%]	viability at 24 h ([1]; 40 °C/UV 365 nm 2 h) [%]	toxicity enhanced (HEK-293 cells) [%]	more cell death after exposing herbicide to 40 °C for 2 h (HEK-293 cells)	change in cell viability (HEK-293 cells)	half-life [2] [days]	LD50 (NIH TOXNET) [4] [mg/kg]	also measured
CCOCN(C(=O)CCl)c1c(C)cccc1CC [Acetochlor, acetochlor]	56.6	163	45.1	55	about 45%	–	–	–	–
CCc1cccc(CC)c1N(COC)C(=O)CCl [Alachlor, alachlor]	54.1	87.9	19.2	80	about 45%	no further changes	19.8	–	increased toxicity (HEK-293 cells; herbicide exposed to UV 254 nm 2 h at 4 °C): 40%; increased toxicity (HEK-293 cells; herbicide exposed to UV 365 nm 2 h at 4 °C): 24%
CCNc1nc(Cl)nc(NC(C)C)n1 [Atrazine, atrazine]	–	–	–	–	–	–	–	–	half-life ([3]; aerobic condition): about 150 days; half-life ([3]; anaerobic condition): more than 2 years; half-life ([3]; in soil): up to 6 months
CCc1cccc(C)c1N(C(=O)CCl)C(C)COC (stereo not shown) [Metolachlor, metolachlor]	–	–	–	–	–	no further changes	33.8	–	differences in cell viability responses between 4 °C, 23 °C and 40 °C groups (HEK-293 cells; UV 254 nm and UV 365 nm for 2 h): no differences; temperature effect on herbicide-triggered cytotoxicity (HEK-293 cells; herbicide at LD50 kept 2 h at 4, 23 or 40 °C, no UV, 4 °C group as control): no further effect; UV effect on cytotoxicity (HEK-293 cells; no UV, UV 254 nm and UV 365 nm groups, 2 h at 4 °C): no further change; hepatotoxicity (isolated rat hepatocytes): not
CC(C)Nc1nc(Cl)nc(NC(C)C)n1 [Propazine, propazine]	–	–	–	–	–	–	–	> 5000	–
CCNc1nc(Cl)nc(NCC)n1 [Simazine, simazine]	–	–	–	–	–	–	–	> 5000	–
